Data reported in US7563799B2, “Substituted pyrazolo[3,4-D]pyrimidines as p38 map kinase inhibitors” (Roche Palo Alto LLC, priority 2005, dated 2009).

What was measured:
p38 MAP kinase = target: T1, p38 MAP kinase (Homo sapiens, UniProt Q16539); assay: p38 (MAP) kinase in vitro assay (transfer of γ-33P from ATP to Myelin Basic Protein); type: biochemical; details: phosphorylated recombinant p38 MAP kinase, MBP substrate, γ-33P-ATP, 30° C.
T1 construct: made in house; host or cells: E. coli (co-expressed with SEK-1 and MEKK)
T1 sequence (Q16539 whole entry): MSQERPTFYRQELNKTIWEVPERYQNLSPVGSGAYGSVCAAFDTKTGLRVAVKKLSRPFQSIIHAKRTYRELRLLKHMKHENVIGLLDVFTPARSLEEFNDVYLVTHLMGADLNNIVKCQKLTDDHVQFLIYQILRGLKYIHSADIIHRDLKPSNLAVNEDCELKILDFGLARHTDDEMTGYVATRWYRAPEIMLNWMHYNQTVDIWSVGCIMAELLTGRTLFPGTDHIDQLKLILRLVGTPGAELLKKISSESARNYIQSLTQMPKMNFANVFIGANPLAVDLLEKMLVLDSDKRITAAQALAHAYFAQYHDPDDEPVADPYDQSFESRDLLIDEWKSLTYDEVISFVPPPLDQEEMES
Protocol: This example illustrates a p38 (MAP) kinase in vitro assay useful for evaluating the compounds of the invention.
The p38 MAP kinase inhibitory activity of compounds of this invention in vitro was determined by measuring the transfer of the γ-phosphate from γ-^33P-ATP by p-38 kinase to Myelin Basic Protein (MBP), using a minor modification of the method described in Ahn, et al., J. Biol. Chem. 266:4220-4227 (1991).
The phosphorylated form of the recombinant p38 MAP kinase was co-expressed with SEK-1 and MEKK in E. Coli (see, Khokhlatchev, et al., J. Biol. Chem. 272:11057-11062 (1997)) and then purified by affinity chromatography using a Nickel column.
The phosphorylated p38 MAP kinase was diluted in kinase buffer (20 mM 3-(N-morpholino)propanesulfonic acid, pH 7.2, 25 mM β-glycerol phosphate, 5 mM ethylene glycol-bis(beta-aminoethyl ether)-N,N,N′,N′-tetraacetic acid, 1 mM sodium ortho-vanadate, 1 mM dithiothreitol, 40 mM magnesium chloride). Test compound dissolved in DMSO or only DMSO (control) was added and the samples were incubated for 10 min at 30° C. The kinase reaction was initiated by the addition of a substrate cocktail containing MBP and γ-^33P-ATP. […] The phosphorylated MBP was then separated from the residual γ-^33P-ATP using a phosphocellulose membrane (Millipore, Bedfrod, Mass.) and quantitated using a scintillation counter (Packard, Meriden, Conn.).

Compound: CS(=O)(=O)c1ccc(Cl)c(-c2n[nH]c3nc(Oc4ccc(F)cc4F)ncc23)c1 [Compound 2, 3-(2-Chloro-5-methanesulfonyl-phenyl)-6-(2,4-difluoro-phenoxy)-1H-pyrazolo[3,4-d]pyrimidine]
- melting point: 251.6 to 252.2 °C

Compound: CS(=O)(=O)c1ccc(Cl)c(-c2n[nH]c3nc(Oc4ccc(F)cc4F)nc(NC(CO)CO)c23)c1 [Compound 4, 2-[3-(2-Chloro-5-methanesulfonyl-phenyl)-6-(2,4-difluoro-phenoxy)-1H-pyrazolo[3,4-d]pyrimidin-4-ylamino]-propane-1,3-diol]
- IC50 (p38 MAP kinase): ~2 nM

Compound: Cc1ccc(S(C)(=O)=O)cc1-c1n[nH]c2nc(Oc3ccc(F)cc3F)ncc12 [Compound 5, 6-(2,4-Difluoro-phenoxy)-3-(5-methanesulfonyl-2-methyl-phenyl)-1H-pyrazolo[3,4-d]pyrimidine]
- melting point: 133 to 135 °C
